# Experimental data reported in PubChem BioAssay (NCI).
#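 In this assay, cells in 96-well plates receive the compound at five concentrations for 48 hours. Endpoints are linearly interpolated between the surrounding concentrations. GI50 marks 50% less growth. Definition used: TGI = concentration required for complete inhibition of growth.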
# Tests used:
# Test in all cases: NCI anticancer screen, dose series, 48 h
# [1] = tested on: ACHN renal
# [2] = tested on: MALME-3M melanoma
# [3] = tested on: NCI-H23 lung
# [4] = tested on: SN12C renal
# [5] = tested on: OVCAR-4 ovarian
# [6] = tested on: NCI-H460 lung
# [7] = tested on: M14 melanoma
# [8] = tested on: U251 CNS
# [9] = tested on: HOP-92 NSCLC
# [10] = tested on: HS 578T breast
smiles,measurement,setting,value
CCCCCCCCCCCc1c(O)c(=O)c2c(oc3c(=O)c(CCCCCCCCCCC)c(O)c(=O)c3n2-c2ccc(N(C)C)cc2)c1=O,TGI,[1],42.8 µM
same,TGI,[2],37.9 µM
same,TGI,[3],47.1 µM
same,TGI,[4],36.8 µM
same,TGI,[5],30.7 µM
same,TGI,[6],36.1 µM
same,TGI,[7],32.8 µM
same,TGI,[8],44.1 µM
C#CCN(Cc1ccc2nc(-c3ccccc3)c(N)nc2c1)c1cc(OC)c(OC)c(OC)c1,TGI,[1],80.7 µM
same,TGI,[2],83.3 µM
same,TGI,[3],> 100 µM
same,TGI,[4],> 100 µM
same,TGI,[5],> 100 µM
same,TGI,[6],81.1 µM
same,TGI,[7],93.7 µM
same,TGI,[8],> 100 µM
CC(=O)NC1=NC(=O)/C(=C/c2ccc(/C=C3/C(=O)N=C(NC(C)=O)N3C)cc2)N1C,TGI,[1],> 100 µM
same,TGI,[3],> 100 µM
same,TGI,[4],> 100 µM
same,TGI,[5],> 100 µM
same,TGI,[6],> 100 µM
same,TGI,[7],> 100 µM
same,TGI,[8],> 100 µM
same,TGI,[9],> 100 µM
COc1ccc(C(=O)C#Cc2c[nH]c(=O)[nH]c2=O)cc1,TGI,[1],30.5 µM
same,TGI,[2],18.7 µM
same,TGI,[3],32.8 µM
same,TGI,[4],19.4 µM
same,TGI,[5],33.1 µM
same,TGI,[6],73.9 µM
same,TGI,[7],18 µM
same,TGI,[8],22.7 µM
same,TGI,[9],41.8 µM
COc1cccc(SSc2cccc(OC)c2C(=O)O)c1C(=O)O,TGI,[1],> 100 µM
same,TGI,[2],> 100 µM
same,TGI,[3],> 100 µM
same,TGI,[4],> 100 µM
same,TGI,[5],> 100 µM
same,TGI,[6],> 100 µM
same,TGI,[7],> 100 µM
same,TGI,[8],> 100 µM
same,TGI,[9],> 100 µM
N#Cc1cccc(C=NC23CC4CC(CC(C4)C2)C3)c1,TGI,[1],> 100 µM
same,TGI,[2],> 100 µM
same,TGI,[3],> 100 µM
same,TGI,[4],> 100 µM
same,TGI,[5],> 100 µM
same,TGI,[6],> 100 µM
same,TGI,[7],> 100 µM
same,TGI,[8],> 100 µM
same,TGI,[9],> 100 µM
c1ccc(OCc2nnc3n2N=C(c2ccccc2)CS3)cc1,TGI,[1],> 100 µM
same,TGI,[2],> 100 µM
same,TGI,[3],> 100 µM
same,TGI,[4],> 100 µM
same,TGI,[5],> 100 µM
same,TGI,[6],> 100 µM
same,TGI,[7],> 100 µM
same,TGI,[8],> 100 µM
same,TGI,[9],> 100 µM
COc1cc(Cl)cc(-c2nn(-c3cccc(NC(=O)Nc4ccc(Cl)c(Cl)c4)c3)cc2-c2ccncc2)c1,GI50,[1],3.23 µM
same,TGI,[1],> 100 µM
same,GI50,[2],2.06 µM
same,TGI,[2],7.85 µM
same,GI50,[10],3890 nM
same,TGI,[10],> 100 µM
same,GI50,[3],2.62 µM
same,TGI,[3],9.04 µM
same,GI50,[4],3.1 µM
same,TGI,[4],> 100 µM
same,GI50,[5],2.85 µM
same,TGI,[5],53.8 µM
same,GI50,[6],2270 nM
same,TGI,[6],13.9 µM
same,GI50,[7],2520 nM
same,TGI,[7],10.9 µM
same,GI50,[8],1.7 µM
same,TGI,[8],6.03 µM
Cc1nc2cc(Nc3ccccc3C(=O)O)ccc2s1,TGI,[1],> 100 µM
same,TGI,[2],> 100 µM
same,TGI,[3],> 100 µM
same,TGI,[4],> 100 µM
same,TGI,[5],> 100 µM
same,TGI,[6],> 100 µM
same,TGI,[7],> 100 µM
same,TGI,[8],> 100 µM
same,TGI,[9],> 100 µM
COc1ccc(NC(=O)CC(=O)n2nc(C)c(N=Nc3ccccc3C(=O)O)c2C)cc1,TGI,[2],> 100 µM
same,TGI,[3],> 100 µM
same,TGI,[4],> 100 µM
same,TGI,[5],> 100 µM
same,TGI,[6],> 100 µM
same,TGI,[7],> 100 µM
same,TGI,[8],> 100 µM
C[C@H](CCC1SC1(C)C)C1CCC2(C)C3=C(CC[C@]12C)[C@@]1(C)CC[C@H](O)C(C)(C)C1CC3 (stereo not given in full),TGI,[1],> 100 µM
same,TGI,[2],> 100 µM
same,TGI,[3],> 100 µM
same,TGI,[4],> 100 µM
same,TGI,[5],> 100 µM
same,TGI,[6],> 100 µM
same,TGI,[7],> 100 µM
same,TGI,[9],> 100 µM
CCCCOC1OC(COC(=O)C(C)C)C(OC(=O)C(C)C)C(O)C1OC1OC(C)C(OC(=O)CCC)C(OC(=O)C(C)C)C1O (stereo not given),GI50,[1],14.9 µM
same,TGI,[1],28.1 µM
same,GI50,[2],19.5 µM
same,TGI,[2],35.2 µM
same,GI50,[10],20700 nM
same,TGI,[10],39.7 µM
same,GI50,[3],14 µM
same,TGI,[3],27 µM
same,GI50,[5],15.1 µM
same,TGI,[5],30.4 µM
same,GI50,[6],11600 nM
same,TGI,[6],27.8 µM
same,GI50,[8],13.6 µM
same,TGI,[8],26.4 µM
same,GI50,[9],13.2 µM
same,TGI,[9],25.9 µM
CC(=O)NC(C=O)C(O[C@H](C)C(=O)NC(C)C(=O)NC(CCC(N)=O)C(=O)OCc1ccccc1)C(O)C(O)COC(=O)CCNc1c2ccccc2nc2cccc([N+](=O)[O-])c12 (stereo not given in full),TGI,[2],4.67 µM
same,TGI,[3],9.45 µM
same,TGI,[4],5.62 µM
same,TGI,[5],25.3 µM
same,TGI,[6],3.44 µM
same,TGI,[7],4.58 µM
same,TGI,[8],7.14 µM
same,TGI,[9],5.41 µM
Cc1nc2ccccc2nc1N=Nc1ccccc1,GI50,[1],16.9 µM
same,TGI,[1],> 100 µM
same,GI50,[2],20.8 µM
same,TGI,[2],65.7 µM
same,GI50,[3],14.4 µM
same,TGI,[3],51.1 µM
same,GI50,[4],30 µM
same,TGI,[4],> 100 µM
same,GI50,[5],16.5 µM
same,TGI,[5],> 100 µM
same,GI50,[7],17700 nM
same,TGI,[7],44.8 µM
same,GI50,[8],35.9 µM
same,TGI,[8],> 100 µM
same,GI50,[9],3.03 µM
same,TGI,[9],43.9 µM
Cc1cc(Cl)ccc1C(=O)c1ccc2ccccc2c1C(=O)O,TGI,[1],> 100 µM
same,TGI,[2],> 100 µM
same,TGI,[3],> 100 µM
same,TGI,[5],> 100 µM
same,TGI,[6],> 100 µM
same,TGI,[7],> 100 µM
same,TGI,[8],> 100 µM
same,TGI,[9],> 100 µM
Cc1ccc(-n2nnnc2-c2cnc(N3CCOCC3)nc2-c2cccc(C(F)(F)F)c2)cc1,GI50,[1],4 µM
same,TGI,[1],> 14.7 µM
same,GI50,[10],1270 nM
same,TGI,[10],> 13.8 µM
same,GI50,[3],1.36 µM
same,TGI,[3],4.11 µM
same,GI50,[4],2.53 µM
same,TGI,[4],> 13.9 µM
same,GI50,[6],2000 nM
same,TGI,[6],> 22.4 µM
same,GI50,[7],1080 nM
same,TGI,[7],2.69 µM
same,GI50,[8],3.52 µM
same,TGI,[8],> 10.6 µM
N#CC1=C(O)NC(O)=C(C#N)C1c1ccc(C2C(C#N)=C(O)NC(O)=C2C#N)cc1,TGI,[1],> 100 µM
same,TGI,[2],> 100 µM
same,TGI,[3],> 100 µM
same,TGI,[4],> 100 µM
same,TGI,[5],> 100 µM
same,TGI,[6],> 100 µM
same,TGI,[7],> 100 µM
same,TGI,[8],> 100 µM
CC(=O)OC1=CC2(OC(C)=O)CC(C)(C)C1C1C(=O)C=CC(=O)C12 (stereo not given),TGI,[1],45.9 µM
same,TGI,[2],38.9 µM
same,TGI,[3],> 100 µM
same,TGI,[4],> 80.5 µM
same,TGI,[5],> 100 µM
same,TGI,[6],> 100 µM
same,TGI,[7],> 100 µM
same,TGI,[8],> 100 µM
same,TGI,[9],> 100 µM
NC(=S)N1N=C2c3ccccc3CC[C@H]2[C@@H]1c1ccc(Cl)cc1,TGI,[1],> 100 µM
same,TGI,[2],52.6 µM
same,TGI,[3],97.7 µM
same,TGI,[4],> 100 µM
same,TGI,[5],> 100 µM
same,TGI,[6],> 100 µM
same,TGI,[7],> 100 µM
same,TGI,[8],> 100 µM
same,TGI,[9],58.2 µM
Cl.Fc1c[c-]c(-c2ccccn2)c(F)c1.[Pt].c1ccc([PH+](C[PH+](c2ccccc2)c2ccccc2)c2ccccc2)cc1,GI50,[1],0.218 µM
same,TGI,[1],0.463 µM
same,GI50,[10],312 nM
same,TGI,[10],1.56 µM
same,GI50,[5],0.267 µM
same,TGI,[5],0.927 µM
same,GI50,[7],314 nM
same,TGI,[7],1.02 µM
same,GI50,[9],0.155 µM
same,TGI,[9],0.48 µM
